Measurements published in patent US20060073516A1, “Novel screening method” (priority 2002, published 2006).

Assays:
rCB7T084 = molecular target: T1, rCB7T084 (Rattus norvegicus, UniProt Q7TN41, R55S); experiment: Suppression of forskolin-increased intracellular cAMP level in rCB7T084-expressed CHO cells; type: cell-based; details: 1 μM forskolin, ligand 1.0×10^−3 M-3.0×10^−7 M, compared to mock CHO cells (FIG. 6, FIG. 7)
T1 construct: expressed in transfected cells; host or cells: CHO cells
T1 sequence (Q7TN41 1-319 R55S): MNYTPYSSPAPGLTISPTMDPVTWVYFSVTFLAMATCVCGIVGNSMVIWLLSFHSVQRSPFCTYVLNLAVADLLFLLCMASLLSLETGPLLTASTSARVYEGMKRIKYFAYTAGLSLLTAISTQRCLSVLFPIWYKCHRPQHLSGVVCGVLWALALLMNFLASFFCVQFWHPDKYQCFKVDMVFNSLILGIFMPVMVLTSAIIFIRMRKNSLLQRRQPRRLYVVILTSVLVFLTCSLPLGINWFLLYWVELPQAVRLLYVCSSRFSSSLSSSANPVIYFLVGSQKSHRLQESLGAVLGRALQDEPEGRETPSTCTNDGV
Method: (§1) The TGR7- and rCB7T084-expressed CHO cells were washed with assay medium (HBSS (GibcoBRL) supplemented with 0.1% bovine serum albumin and 0.2 mM IBMX). Thereafter, the cells were incubated at 37° C. for 30 minutes under 5% CO2 conditions. β-Alanine (1.0×10^−3 M-3.0×10^−7 M) and L-carnosine (1.0×10^−3 M-3.0×10^−7 M) diluted with the assay medium in various concentrations were added and forskokin was then added thereto in 1 μM. The cells were incubated at 37° C. for 30 minutes under 5% CO2 conditions. The culture supernatant was discarded and the intracellular cAMP level was determined on a plate reader (ARVO multi-label counter, Wallac, Inc.), following the protocol of cAMP Screen Kit (Applied Biosystems, Inc.).

TGR7 [1] = molecular target: T2, TGR7 (Homo sapiens, UniProt Q8TDS7); experiment: Suppression of forskolin-increased intracellular cAMP level in TGR7-expressed CHO cells; type: cell-based; parameters: expressed in transfected cells; host or cells: CHO cells; details: 1 μM forskolin, ligand 1.0×10^−3 M-3.0×10^−7 M, compared to mock CHO cells (FIG. 6, FIG. 7)
Method: as §1

TGR7 [2] = molecular target: T2, TGR7; details: β-alanine added in 10^−4 M to 10^−5 M; CHO-K1 cells expressing human TGR7; FLIPR, Fluo-3AM (FIG. 1)
Method: (§2) The CHO-K1 cell line was cultured in HAM F-12 medium (Invitrogen) containing 10% fetal calf serum (Invitrogen), unless otherwise indicated. A day before transfection, 4.5×10^5 cells per 10 cm^2 were plated, followed by incubation in a CO2 incubator adjusted to a concentration of 5% CO2 at 37° C. for at least 15 hours. Using Lipofectamine reagent (Invitrogen), transfection was carried out by modifications of the method attached to the reagent. When a 6-well plate was used for the incubation, the following procedures were performed. First, 2 tubes each having a 1.5 ml volume were prepared and 100 μl each of Opti-MEM medium (Invitrogen) was dispensed in each tube. Next, 1 μg of the expression vector was charged in one tube and in another tube, 6 μl of Lipofectamine reagent was charged, which were mixed together. The mixture was settled for 20 minutes at room temperature. To the solution, 800 μl of Opti-MEM medium was added and the resulting solution mixture for transfection was added to the CHO-K1 cells, which had been previously washed with Opti-MEM medium. Then, the cells were incubated in a CO2 incubator for 6 hours. After the incubation, the cells were rinsed with PBS (Invitrogen), then scraped using 0.05% trypsin-EDTA solution (Invitrogen) and recovered by centrifugal operation. The cells obtained were counted and diluted to 5×10^4 cells per 200 μl of the medium. The dilution was dispensed onto a Black walled 96-well plate (Costar) in 200 μl each per well, followed by incubation overnight in a CO2 incubator. Various test samples were added to the CHO-K1 cells in which the receptor was transiently expressed by the transfection operation described above, whereby changes in the intracellular calcium ion level were determined using FLIPR (Molecular Device). In order to determine the changes in the intracellular calcium ion level on FLIPR, the cells were pre-teated by the following procedures. […] Following the pre-treatment above, changes in intracellular calcium level after addition of various test samples were measured on FLIPR.

[3] = test system: CHO-K1 cells into which the expression vector alone was introduced; details: control CHO-K1 cells, expression vector alone (no insert); FLIPR (FIG. 3)
Method: as §2

rat rCB7T084 = rat rCB7T084 (Rattus norvegicus, UniProt Q7TN41, R55S); details: β-alanine added in 10^−4 M to 10^−5 M; CHO-K1 cells expressing rat rCB7T084; FLIPR, Fluo-3AM (FIG. 2)
Method: as §2

T2 sequence (Q8TDS7 whole entry): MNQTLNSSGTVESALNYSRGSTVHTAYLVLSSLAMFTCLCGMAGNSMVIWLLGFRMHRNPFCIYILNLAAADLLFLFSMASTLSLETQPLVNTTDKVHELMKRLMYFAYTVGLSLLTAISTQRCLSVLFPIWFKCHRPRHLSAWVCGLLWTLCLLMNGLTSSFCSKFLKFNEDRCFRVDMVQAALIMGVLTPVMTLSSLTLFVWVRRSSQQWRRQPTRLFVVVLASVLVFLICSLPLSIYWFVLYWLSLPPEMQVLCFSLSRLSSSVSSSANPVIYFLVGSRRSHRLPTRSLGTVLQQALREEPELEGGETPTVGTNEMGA

Row | response (increase in the intracellular calcium level) (TGR7 [2]) | response (increase in the intracellular calcium level) (rat rCB7T084) | SMILES | decrease of the intracellular cAMP level increased by forskolin addition (rCB7T084) | decrease of the intracellular cAMP level increased by forskolin addition (TGR7 [1]) | response (increase in the intracellular calcium level) [3]
1 |  |  | NCCC(=O)N[C@@H](Cc1cnc[nH]1)C(=O)O [L-carnosine] | dose-dependent and specific decrease | dose-dependent and specific decrease | 
2 | specifically responsive | specifically responsive | NCCC(=O)O [β-alanine] | dose-dependent and specific decrease | dose-dependent and specific decrease | such response was not observed
